Laboratory results reported in patent US12544384B2, “Antibiotic conjugates” (priority 2018, dated 2026).
≈ marks a conversion by molar mass, not a printed value. Where two headings read alike, the source gives them in different places.

What was measured:
[1] = test system: A. baumannii ATCC BAA 1793; experiment: MIC against clinical isolate; type: cell-based, Acinetobacter baumannii; settings: for MIC: Acinetobacter baumannii; for Antibacterial activity (in words): clinical isolate ATCC BAA1793
Experimental: (§1) Subsequently, the activities of the disclosed compounds were evaluated against four clinical isolates of A. baumannii (ATCC 17961, ATCC BAA1793, ATCC BAA1797 and ATTC BAA1800). All four A. baumannii isolates were resistant to compounds 3, 22, 23, and 27. Strain ATCC 17961 was susceptible to both 26 and 1, indicating lack of or low β-lactamase content and/or activity.

[2] = test system: A. baumannii ATCC BAA 1797; experiment: MIC against clinical isolate; type: cell-based, Acinetobacter baumannii; settings: for MIC: Acinetobacter baumannii; for Antibacterial activity (in words): clinical isolate ATCC BAA1797
Experimental: as §1

[3] = test system: A. baumannii ATCC BAA 1800; experiment: MIC against clinical isolate; type: cell-based, Acinetobacter baumannii; settings: for MIC: Acinetobacter baumannii; for Antibacterial activity (in words): clinical isolate ATCC BAA1800
Experimental: as §1

A. baumannii ATCC 17961 = experiment: MIC against clinical isolate; type: cell-based, Acinetobacter baumannii; settings: for MIC: Acinetobacter baumannii; for Antibacterial activity (in words): clinical isolate ATCC 17961
Experimental: as §1

E. coli DC0 = experiment: MIC against other Gram-negative bacteria; settings: for Antibacterial activity (in words): Escherichia coli DC0; for MIC: Escherichia coli, DC0, read-out: Activity (MIC)
Experimental: (§3) This plasmid was then introduced by electroporation into A. baumannii ATCC 17978 for MIC measurements. MIC analyses were performed using iron depleted media as described previously (Ghosh, J. Med. Chem., 2017, 60, 4577-4583).

[4] = test system: A. baumannii ATCC 17978 pNT255; experiment: MIC, antimicrobial susceptibility assay, strain with pNT255 vector; type: cell-based; settings: Acinetobacter baumannii, ATCC17978, read-out: Activity (MIC)
Source text: (§2) For this purpose, A. baumannii ATCC 17978, which produces a small amount of the chromosomally-encoded enzyme, and the same strain that produces a large amount of ADC-1 from the pNT255 vector were used (Table 1).

[5] = test system: A. baumannii ATCC 17978 pNT225: ADC-1; experiment: MIC, antimicrobial susceptibility assay, strain with plasmid-encoded ADC-1 β-lactamase; type: cell-based, Acinetobacter baumannii; settings: for MIC: Acinetobacter baumannii, ATCC17978, read-out: Activity (MIC)
Source text: as §2

A. baumannii ATCC 17978 = experiment: MIC, antimicrobial susceptibility assay in iron depleted media; type: cell-based, Acinetobacter baumannii; settings: for Antibacterial activity (in words): A. baumannii ATCC 17978, low amount of ADC-1; for MIC: Acinetobacter baumannii, ATCC17978, A. baumannii ATCC 17978, small amount of chromosomal ADC-1, iron depleted media, average of three measurements
Source text: as §2

P. aeruginosa KW799/wt = experiment: MIC against other Gram-negative bacteria; settings: for Antibacterial activity (in words): Pseudomonas aeruginosa KW799
Experimental: as §3

ADC-1 β-lactamase = experiment: Enzymatic hydrolysis by ADC-1, LC/MS; type: biochemical, A. baumannii; settings: 20 μM compound, 20 μM ADC-1, 50 mM sodium phosphate pH 7.4, room temperature, 40 min
Experimental: With the final siderophore-cephalosporin-oxazolidinone conjugate (1) along with the separate cephalosporin and oxazolidinone conjugates (26 and 27) as well as the corresponding cephalosporin (23), oxazolidinone (3) and eperezolid (17) available, enzymatic and anti-bacterial assays were performed to test the susceptibility of conjugate (1) to the hydrolytic activity of β-lactamases from Gram-negative bacteria. Thus, assays were conducted to evaluate whether the oxazolidinone could be efficiently released from the final siderophore-cephalosporin-oxazolidinone conjugate (1) as a result of cephalosporin hydrolysis by a β-lactamase. For this purpose, one of the ADC-type β-lactamases (ADC-1) was chosen as ADC enzymes are intrinsic to A. baumannii, an important clinical pathogen, and are capable of hydrolyzing cephalosporin antibiotics.
The ADC-1 β-lactamase was expressed and purified as previously described (Bhattacharya et al., Acta Crystallogr., Sect. D: Biol. Crystallogr., 2014, 70, 760-771). Conjugate 1 (10 mM in DMSO) was diluted 5-fold in DMSO and then another 10-fold in 50 mM sodium phosphate, pH 7.4 to give a 200 μM solution with 10% DMSO. Subsequently, a 60 μL reaction was prepared consisting of 20 μM of 1 (6 μL of a 200 μM solution) and 20 μM ADC-1 β-lactamse (8.1 μL of 148 μM enzyme) in 50 mM sodium phosphate, pH 7.4 (the final concentration of DMSO was 1%). […]

[6] = test system: Mycobacterium tuberculosis (Mtb); settings: background statement; cited from earlier work
[7] = BAA1793, A. baumannii ATCC BAA 1793, read-out: Activity (MIC)
[8] = BAA1797, A. baumannii ATCC BAA 1797, read-out: Activity (MIC)
[9] = BAA1800, A. baumannii ATCC BAA 1800, read-out: Activity (MIC)
[10] = ATCC17961, A. baumannii ATCC 17961, read-out: Activity (MIC)
[11] = Pseudomonas aeruginosa, KW799/WT, read-out: Activity (MIC)
[12] = BAA1793, read-out: Activity (MIC)
[13] = BAA1797, read-out: Activity (MIC)
[14] = BAA1800, read-out: Activity (MIC)
[15] = ATCC17961, read-out: Activity (MIC)

Structure (SMILES)	Antibacterial activity (in words) [1]	Antibacterial activity (in words) [2]	Antibacterial activity (in words) [3]	Antibacterial activity (in words) (A. baumannii ATCC 17961)	Antibacterial activity (in words) (E. coli DC0)	MIC (E. coli DC0) [µM]	MIC [4] [µM]	MIC [5] [µM]	Antibacterial activity (in words) (A. baumannii ATCC 17978)	MIC (A. baumannii ATCC 17978) [µM]	Antibacterial activity (in words) (P. aeruginosa KW799/wt)	MIC (P. aeruginosa KW799/wt; [11]) [µM]	MIC [1, 12] [µM]	MIC [2, 13] [µM]	MIC [3, 14] [µM]	MIC (A. baumannii ATCC 17961; [15]) [µM]	other results
CC(=O)OCC1=C(C(=O)O)N2C(=O)[C@@H](NC(=O)C(NC(=O)CN(CCCCNC(=O)c3cccc(O)c3O)C(=O)c3cccc(O)c3O)c3ccccc3)[C@H]2SC1 (stereo partly drawn) [Compound 26, (6R,7R)-3-(Acetoxymethyl)-7-(2-(2-(N-(4-(2,3-dihydroxybenzamido)butyl)-2,3-dihydroxybenzamido)acetamido)-2-phenylacetamido)-8-oxo-5-thia-1-azabicyclo[4.2.0]oct-2-ene-2-carboxylic acid]	detectable activity	resistant	detectable activity	susceptible	remarkably active	< 0.025	0.4 (≈ 0.322 µg/mL)	> 50	remarkably active	0.4 (≈ 0.322 µg/mL)	remarkably active	0.4 (≈ 0.322 µg/mL)	–	–	–	–	MIC [1, 7]: 12.5 µM (≈ 10.1 µg/mL); MIC [2, 8]: > 50 µM; MIC [3, 9]: 25 µM (≈ 20.1 µg/mL); MIC (A. baumannii ATCC 17961; [10]): 0.8 µM (≈ 0.645 µg/mL); Antibacterial activity (in words) ([5]; A. baumannii with plasmid-encoded β-lactamase (pNT255:adc1)): highly resistant; MIC (P. aeruginosa KW799/wt; vs P. aeruginosa KW799/wt): 0.4
CC(=O)NC[C@H]1CN(c2ccc(N3CCN(C(=O)CNC(=O)OCC4=C(C(=O)O)N5C(=O)[C@@H](NC(=O)C(N)c6ccccc6)[C@H]5SC4)CC3)c(F)c2)C(=O)O1 (stereo partly drawn) [Compound 22, (6R,7R)-3-((((2-(4-(4-((S)-5-(Acetamidomethyl)-2-oxooxazolidin-3-yl)-2-fluorophenyl)piperazin-1-yl)-2-oxoethyl)carbamoyl)oxy)methyl)-7-(2-amino-2-phenylacetamido)-8-oxo-5-thia-1-azabicyclo[4.2.0]oct-2-ene-2-carboxylic acid]	resistant	resistant	resistant	resistant	not active	> 50	> 50	> 50	not active	> 50	not active	> 50	–	–	–	–	MIC [1, 7]: > 50 µM; MIC [2, 8]: > 50 µM; MIC [3, 9]: > 50 µM; MIC (A. baumannii ATCC 17961; [10]): > 50 µM
CC(=O)NC[C@H]1CN(c2ccc(N3CCN(C(=O)CO)CC3)c(F)c2)C(=O)O1 [Compound 17, eperezolid, reference compound]	–	–	–	–	–	–	> 50	> 50	not active	> 50	–	–	–	–	–	–	–
CC(=O)NC[C@H]1CN(c2ccc(N3CCN(C(=O)CN)CC3)c(F)c2)C(=O)O1 [Compound 3, (S)—N-((3-(3-Fluoro-4-(4-glycylpiperazin-1-yl)phenyl)-2-oxooxazolidin-5-yl)methyl)acetamide]	resistant	resistant	resistant	resistant	not active	> 50	> 500	> 500	not active	> 500	not active	> 50	> 50	> 50	> 50	> 50	–
CC(=O)NC[C@H]1CN(c2ccc(N3CCN(C(=O)CNC(=O)CN(CCCCNC(=O)c4cccc(O)c4O)C(=O)c4cccc(O)c4O)CC3)c(F)c2)C(=O)O1 [Compound 27, (S)—N-(2-((2-(4-(4-(5-(Acetamidomethyl)-2-oxooxazolidin-3-yl)-2-fluorophenyl)piperazin-1-yl)-2-oxoethyl)amino)-2-oxoethyl)-N-(4-(2,3-dihydroxybenzamido)butyl)-2,3-dihydroxybenzamide]	resistant	resistant	resistant	resistant	not active	> 50	> 50	> 50	not active	> 50	not active	> 50	> 50	> 50	> 50	> 50	–
CC(=O)NC[C@H]1CN(c2ccc(N3CCN(C(=O)CNC(=O)OCC4=C(C(=O)O)N5C(=O)[C@@H](NC(=O)C(NC(=O)CN(CCCCNC(=O)c6cccc(O)c6O)C(=O)c6cccc(O)c6O)c6ccccc6)[C@H]5SC4)CC3)c(F)c2)C(=O)O1 (stereo partly drawn) [Compound 1, (6R,7R)-3-((((2-(4-(4-((S)-5-(Acetamidomethyl)-2-oxooxazolidin-3-yl)-2-fluorophenyl)piperazin-1-yl)-2-oxoethyl)carbamoyl)oxy)methyl)-7-(2-(2-(N-(4-(2,3-dihydroxybenzamido)butyl)-2,3-dihydroxybenzamido)acetamido)-2-phenylacetamido)-8-oxo-5-thia-1-azabicyclo[4.2.0]oct-2-ene-2-carboxylic acid]	very active	very active	very active	susceptible	remarkably active	< 0.025	0.4 (≈ 0.473 µg/mL)	6 (≈ 7.1 µg/mL)	similarly potent activity	0.4 (≈ 0.473 µg/mL)	remarkably active	0.2 to 0.4 (≈ 0.237 to 0.473 µg/mL)	0.8 to 1.6 (≈ 0.947 to 1.89 µg/mL)	6.25 (≈ 7.39 µg/mL)	0.8 (≈ 0.947 µg/mL)	0.8 (≈ 0.947 µg/mL)	Hydrolysis by purified ADC-1 and release of oxazolidinone (ADC-1 β-lactamase): rapid and complete hydrolysis and release of the oxazolidinone; Decrease of MIC compared to the siderophore-cephalosporin ([5]; A. baumannii with plasmid-encoded β-lactamase, versus 26): at least 8 fold
C[C@@H]1CC[C@H]2[C@@H](C)C(=O)O[C@@H]3O[C@@]4(C)CC[C@@H]1[C@]32OO4 [artemisinin]	–	–	–	–	–	–	–	–	–	–	–	–	–	–	–	–	Anti-tuberculosis activity (in words) [6]: no anti-tuberculosis activity
